Where two headings read alike, the source gives them in different places.
How the values were obtained:
[1] = target: T1, TwinStrep-GST-HDAC10 (Homo sapiens, UniProt Q969S8); assay: HDAC10 TR-FRET assay; format: binding; conditions: reducing conditions (0.5 M TCEP)
T1 sequence (Q969S8 1-669): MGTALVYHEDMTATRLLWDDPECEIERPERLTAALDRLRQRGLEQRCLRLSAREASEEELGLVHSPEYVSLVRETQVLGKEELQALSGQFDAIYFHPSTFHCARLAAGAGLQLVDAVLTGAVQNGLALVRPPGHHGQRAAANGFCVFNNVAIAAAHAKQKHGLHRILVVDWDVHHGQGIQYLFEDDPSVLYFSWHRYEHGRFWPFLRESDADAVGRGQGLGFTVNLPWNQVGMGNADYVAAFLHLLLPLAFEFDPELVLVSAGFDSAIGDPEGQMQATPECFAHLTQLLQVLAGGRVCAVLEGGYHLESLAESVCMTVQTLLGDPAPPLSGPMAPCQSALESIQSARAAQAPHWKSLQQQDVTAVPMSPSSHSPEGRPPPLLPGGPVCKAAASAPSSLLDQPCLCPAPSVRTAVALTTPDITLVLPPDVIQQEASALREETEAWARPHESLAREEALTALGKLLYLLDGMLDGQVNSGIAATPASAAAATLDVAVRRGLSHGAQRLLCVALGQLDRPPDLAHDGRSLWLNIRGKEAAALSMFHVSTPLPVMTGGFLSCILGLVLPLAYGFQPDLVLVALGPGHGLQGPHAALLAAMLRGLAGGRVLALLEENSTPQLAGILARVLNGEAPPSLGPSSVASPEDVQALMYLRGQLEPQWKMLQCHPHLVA
Procedure: (§1) To validate the inhibition of HDACs by LA and LM and elaborate on the structure-activity relationship (SAR) of enantiomers as well as oxidized versus reduced forms of the molecules, we performed enzyme activity assays for recombinant HDAC1,2,3,6,8 as well as FRET-based binding assay for recombinant HDAC10.
Inhibitors with a D300e Digital Dispenser (Tecan). After drug dosing to the premixed assay reagents in buffer, plates were shaken (800 rpm orbital shaker, 30 s), centrifuged (300g, 1 min), and incubated at RT in the dark for 90 min. TR-FRET was measured with a CLARIOstar (BMG Labtech) plate reader, equipped with TR-FRET filters.

[2] = test system: HDAC1,2,3,6,8; assay: HDAC-Glo assay (panel); format: biochemical, human; conditions: for HDAC inhibition by the oxidized form: absence of TCEP; for EC50: with TCEP, range over HDAC1,2,3,6,8, read-out: EC50 of HDAC inhibition, reduced form
Procedure: as §1
The experiments were performed according to ref. [48]. […] Drug dosing was performed with a D300e Digital Dispenser (Tecan). HDACs (7 ng/mL for HDAC1, 25 ng/mL for HDAC2, 200 ng/mL for HDAC3/Ncor2 complex, 100 ng/mL for HDAC6, 200 ng/mL for HDAC8) and inhibitors were incubated together at room temperature (RT) for 30 min. After the addition of the HDAC-Glo™ I/II reagent, plates were shaken (800 rpm orbital shaker, 30 s), centrifuged (300 g, 1 min), and incubated at RT for 30 min. Luminescence was detected with a CLARIOstar (BMG Labtech) plate reader.

[3] = target: T2, HDAC10 (Homo sapiens, UniProt Q969S8); assay: Chemoproteomic competition pulldown assay; format: binding
T2 construct: host or cells: HeLa mono-clones, stably expressing
T2 sequence (Q969S8 1-669): T1 sequence (Q969S8 1-669)
Procedure: To identify proteins directly bound by lipoic acid, we employed a chemoproteomic competition assay. Briefly, (R/S)-LA was immobilized on sepharose beads via an amidation reaction to form an affinity matrix (abbreviated as iL; Fig. 1a). This affinity matrix can be incubated with cell lysate to pull down potential LA or LM target proteins and identify these targets via bottom-up proteomics. In a competition assay, free LA or LM were incubated with lysate at different concentrations before pulling down and quantifying target proteins. […] (Fig. 1b, see “Methods” for details). […] The lysate buffer used in this assay contains 1 mM DTT to mimic the intracellular reductive milieu and to reduce lipoic acid and LM. […] Additional competition assays performed in lung adenocarcinoma cell A549 lysate also identified HDAC1, HDAC2, and HDAC6 as targets (Supplementary Fig. 1b). Amongst the three cell lines tested, HDACs were the only confidently identified targets across the 1500–3000 proteins quantified in these assays. […] We validated the results by analogous pulldown competition assays using two other affinity matrices prepared via the immobilization of either the HDAC inhibitor Quisinostat (iQ) and an analog of the class IIa HDAC inhibitor Bürli’s 31[14] (iC)[12]. We have previously shown that these affinity matrices specifically bind to the active sites of HDACs and have used them for HDACi selectivity profiling. Indeed, binding of (R/S)-LA and (R/S)-LM to HDAC1, HDAC2, HDAC3, HDAC6, and, to a lesser extent, HDAC8 was confirmed in these assays (Supplementary Fig. 1c, d). No binding to class IIa HDACs or the recently discovered common HDAC inhibitor off-target MBLAC2 was observed (Supplementary Fig. 1e)[12]. […] This observation might reflect electrostatic repulsion between the HDAC10 active site gate-keeper glutamic acid residues[15],[16] and the terminal carboxylic acid of LA.
To assess the degree of protein depletion from lysates by the affinity matrix, a second pulldown (PDPD) with fresh beads was performed using the unbound protein fraction from the vehicle control flow through. The beads were washed (1 × 1 mL of lysis buffer without inhibitors and only 0.4% Igepal, 2 × 2 mL of lysis buffer without inhibitors and only 0.2% Igepal), and captured proteins were denatured with 8 M urea buffer, alkylated with 55 mM chloroacetamide and digested with Trypsin according to standard procedures. The resulting peptides were desalted on a C18 filter plate (Sep-Pak® tC18 µElution Plate, Waters), vacuum dried, and stored at −20 °C until LC–MSMS measurement.
For the competition assays, relative binding was calculated based on the protein intensity ratio to the DMSO control for every single inhibitor concentration. EC50 values were derived from a four-parameter log-logistic regression with variable slope (constrain: bottom > 0). The obtained EC50 values were multiplied with a protein-dependent correction factor (cf), resulting in the apparent Kd value (Kd^app). The correction factor is determined by calculating the ratio of the protein intensity of two consecutive pulldowns of the vehicle control sample[13]. Targets of the inhibitors were annotated manually according to published procedures[12],[46],[47]. […] Additionally, the number of unique peptides and MSMS counts per condition were taken into account. Positive target binding across several independent experiments performed with different cell lysates further substantiated our confidence for a true positive drug-target binding event.

[4] = iQ, SW620, read-out: pKdapp (converted)
[5] = iQ, SW620 lysate, log10 M -3.52288
[6] = iQ, SW620 lysate, log10 M -4.52288
[7] = iQ, SW620 lysate, log10 M -5.52288
[8] = iQ, SW620 lysate, log10 M -6.52288

Structure (SMILES)	fold lower affinity to HDAC10 compared to Vorinostat [1] [fold]	HDAC inhibition by the oxidized form [2]	EC50 [2] [µM]	HDAC10 binding in competition assays [3]	Kd [3, 4] [µM]	relative binding vs DMSO [3, 5]	relative binding vs DMSO ([3]; iQ, SW620 lysate, log10 M -4)	relative binding vs DMSO [3, 6]	relative binding vs DMSO ([3]; iQ, SW620 lysate, log10 M -5)	relative binding vs DMSO [3, 7]	relative binding vs DMSO ([3]; iQ, SW620 lysate, log10 M -6)	relative binding vs DMSO [3, 8]	relative binding vs DMSO ([3]; iQ, SW620 lysate, log10 M -7)	other results
O=C(O)CCCCC1CCSS1 (racemic) [(R/S)-LA, (R/S)-lipoic acid]	~200	diminished activity	1 to 44	does not bind HDAC10	> 316	0.8351	1.0789	0.7975	1.279	1.261	1.294	1.332	1.395	–
NC(=O)CCCCC1CCSS1 (racemic) [(R/S)-LM, (R/S)-lipoamide]	5	No activity at all	1 to 44	binds HDAC10 with an even higher affinity than other HDACs	3.16	0.03275	0.4253	0.3482	0.4143	0.681	0.6621	0.6582	0.9909	relative binding vs DMSO ([3]; iL, MV4-11 lysate, log10 M -3.52288): 0.04424; relative binding vs DMSO ([3]; iL, MV4-11 lysate, log10 M -4): 0.1432; relative binding vs DMSO ([3]; iL, MV4-11 lysate, log10 M -4.52288): 0.2397; relative binding vs DMSO ([3]; iL, MV4-11 lysate, log10 M -5): 0.4705; relative binding vs DMSO ([3]; iL, MV4-11 lysate, log10 M -5.52288): 0.6761; relative binding vs DMSO ([3]; iL, MV4-11 lysate, log10 M -6): 0.5589; relative binding vs DMSO ([3]; iL, MV4-11 lysate, log10 M -6.52288): 0.7984; relative binding vs DMSO ([3]; iL, MV4-11 lysate, log10 M -7): 0.7331; Kd ([3]; iL, MV4-11 lysate, read-out: Kd app): 5 µM; Kd ([3]; iL, MV411, read-out: pKdapp (converted)): 3.16 µM

Source: PMC10272112 (Nature Communications, 2023)
